These results are taken from US20190270796A1, “THERAPEUTIC AGENT FOR PERIODONTITIS AND COMPOSTION FOR TREATING PERIODONTITIS” (NIHON UNIVERSITY, priority 2016, published 2019).

Assay [1] relates to gingival fibroblasts extremely decomposing collagen gel (PAF1, PAF2). Description: weight of collagen gel after three-dimensional culture (Experimental Example 3). Conditions: HGF 50 ng/mL, HGF-neutralizing antibody 20 μg/mL; for weight of collagen gel: day 5 of suspension culture. Format: cell-based, human. The procedure:
Cell matrix type I-A (Nitta Gelatin Inc.), 5×DMEM, a buffer solution for reconstitution (Nitta gelatin) were mixed with each other to prepare a collagen mixed solution. An HGF-neutralizing antibody (model “AB-294-NA”, R&D) was added to this collagen mixed solution so that the final concentration became 20 μg/mL. In addition, a sample containing no test substance (control) and a sample to which HGF (model “100-39”, PeproTech, Inc.) was added so that the final concentrations became 50 ng/mL were prepared for comparison.
Subsequently, the same gingival fibroblasts, which extremely decompose collagen gel, as in Experimental Example 1 were mixed with these collagen mixed solutions and seeded in a 6-well plate so that the cell density became 2.5×10^5 cells/well. Subsequently, the mixture was incubated at 37° C. for 30 minutes and the collagen gel was hardened. Two kinds of cells (hereinafter, referred to as “PAF1” and “PAF2”) were used as gingival fibroblasts extremely decomposing collagen gel.
Subsequently, the same gingival epithelial cells as in Experimental Example 1 were dispersed by trypsin treatment, and were then seeded on the above-described collagen gel at 2×10^5 cells/well to form a single layer of the epithelial cells.
Subsequently, each prepared collagen gel was incubated at 37° C. After 24 hours, each collagen gel piece was peeled off from a plate and was suspended (on day 1 of culture). HGF-neutralizing antibodies having the same concentration as that described above were added to a medium of a test group. Subsequently, suspension culture of collagen gel was continued at 37° C.
Collagen gel was collected on day 5 after the start of the suspension culture, and the weight thereof was measured. FIGS. 5(a) and 5(b) are photographs of collected collagen gel. […] In FIGS. 5(a) and 5(b), the “control” indicates control collagen gel, “HGF” indicates collagen gel to which HGF is added, and the “HGF-neutralizing antibody” indicates collagen gel to which an HGF-neutralizing antibody is added.

Assay [2] relates to monkey gingival fibroblasts which extremely decompose collagen gel. Description: three-dimensional collagen gel culture system with monkey gingival fibroblasts (Experimental Example 4). Format: cell-based, Macaca fascicularis. Particulars: HGF 50 ng/mL, HGF-neutralizing antibody 20 μg/mL. The text has this: Before clinical application of the therapeutic agent for periodontitis of the present invention to humans, it is necessary to conduct experiments using monkeys. An effect of an HGF-neutralizing antibody on degradation of collagen using gingival fibroblasts derived from a monkey naturally occurred periodontitis was examined using the same three-dimensional collagen gel culture system as in Experimental Example 1. Since it is difficult to culture gingival epithelial cells of monkeys, human gingival epithelial cells were used as gingival epithelial cells. Tissue of a gingiva piece derived from an euthanasia individual of a monkey (Macaca fascicularis, raised in Tsukuba Primate Research Center) naturally occurred periodontitis was cut, and then, the tissue pieces were allowed to stand on the bottom of a cell culture plate. Subsequently, outgrown cells from the tissue pieces were subcultured as a first generation to obtain monkey gingival fibroblasts. The obtained gingival fibroblasts were once cultured in the above-described three-dimensional collagen gel culture system to observe collagen resolution, and gingival fibroblasts which extremely decompose collagen gel (that is, with which collagen gel were degraded and contracted). […]

The test system of assay [3] is normal gingival fibroblasts. Description: three-dimensional collagen gel culture system with normal gingival fibroblasts (Experimental Example 1). Format: cell-based, human. Particulars: day 5 of suspension culture, HGF 25 and 50 ng/mL, HGF-neutralizing antibody 20 μg/mL. The text has this:
In addition, gingival fibroblasts with a low resolution of collagen gel (hereinafter, sometimes referred to as “normal gingival fibroblasts”) were used as controls. Gingival fibroblasts with which the contraction of collagen gel having a diameter of 35 mm remained to a diameter of about 10 mm were used as normal gingival fibroblasts.
In addition, the same collagen gel as the above-described collagen gel was produced for comparison except that the above-described normal gingival fibroblasts were used instead of the gingival fibroblasts which extremely decompose collagen gel.
Subsequently, each prepared collagen gel piece was incubated at 37° C. After 24 hours, each collagen gel piece was peeled off from a plate and was suspended (on day 1 of culture). Each test substance (HGF-neutralizing antibody and HGF) having the same concentration as that described above was added to a medium. Subsequently, suspension culture of collagen gel was continued at 37° C., and collagen gel was observed on day 5 after the start of the suspension culture.
FIGS. 2(a) to 2(h) are photographs of each collagen gel piece on day 5 after the start of the suspension culture. Each mass floating in each well in FIGS. 2(a) to 2(h) is collagen gel. FIGS. 2(a) to 2(d) show results of collagen gel containing gingival fibroblasts which extremely decompose collagen gel. […]

The subject of assay [4] is gingival fibroblasts which extremely decompose collagen gel, derived from a patient with periodontitis. Nature of the assay: three-dimensional collagen gel culture system, collagen degradation (Experimental Example 1). In kind it is cell-based, human. Particulars: day 5 of suspension culture; compared to control; HGF 50 ng/mL; HGF-neutralizing antibody 20 μg/mL. The procedure: First, a three-dimensional collagen gel culture system of gingival fibroblasts previously developed by the present inventors will be described with reference to FIGS. 1(a) to 1(d). In this culture system, it is possible to evaluate the influence of a test substance on degradation of collagen in periodontal tissues in vitro and to obtain results close to in vivo.
First, as shown in FIG. 1(a), gingival fibroblasts derived from a patient with periodontitis and a test substance are added into collagen gel, and the mixture is poured into a petri dish. Subsequently, the mixture is incubated at 37° C. for 30 minutes and the collagen gel is hardened. Subsequently, gingival epithelial cells derived from the patient with periodontitis are seeded on the hardened collagen gel and incubated overnight.
Subsequently, as shown in FIG. 1(b), the collagen gel is peeled off from the petri dish to make the collagen gel float. At this time, the test substance is also added into a medium in which the collagen gel floats. Subsequently, the suspension culture is continued for 5 days. Meanwhile, the collagen gel is degraded and contracts due to various factors produced by an interaction between the gingival fibroblasts and the gingival epithelial cells. […]
Subsequently, as shown in FIG. 1(c), the amount of residual collagen is quantitatively determined on day 5 of suspension culture. […]

In the case of “HGF: HGF (model “100-39”, PeproTech, Inc.), hepatocyte growth factor added for comparison”, the “weight of collagen gel” value in assay [1] (PAF1, control 0.013 g) is recorded as 0.011 g; in assay [1] (PAF2, control 0.034 g), 0.028 g. In addition, in assay [1] (PAF1 and PAF2, compared to control collagen gel), the “degradation of collagen gel” value is “remarkably accelerated”. In addition, the “degradation of collagen (observation of collagen gel)” value in assay [2] (monkey gingival fibroblasts with human gingival epithelial cells (SAF1, SAF2), day 5 of suspension culture, compared to controls) is given as “promoted”; in assay [4], “clearly accelerated”. For the same substance, the “vacuoles around cells (hematoxylin-eosin staining of thin section of collagen gel)” value in assay [2] (monkey gingival fibroblasts, SAF1) is listed as “a vacuole is formed around the cell”. In addition, the “difference in decomposition of collagen” value in assay [3] was “no difference”.
